According to paper PMC6001238, “Iterative Chemical Engineering of Vancomycin Leads to Novel Vancomycin Analogs With a High in Vitro Therapeutic Index” (Frontiers in Microbiology, 2018):
Values after ≈ are worked out from the molar mass of the structure shown. Like-named read-outs stand apart in the source and are kept apart here.

How the values were obtained:
E. faecalis VRE 6 = assay: MIC, broth microdilution, vancomycin-resistant E. faecalis VRE 6 (VanA); assay type: cell-based, Enterococcus faecalis; details: for MIC: Enterococcus faecalis VRE 6 (vancomycin-resistant), read-out: MIC; for MIC-fold improvement vs. vancomycin: VRE 6, ratio of MIC of vancomycin and MIC of analogue
Procedure, shortened: (§1)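 Read-out: lowest concentration inhibiting growth in broth microdilution, CLSI method. Water and broth-only wells acted as controls; in one case 10 μM vancomycin (final) was present with the compound.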

MRSA KS6 = assay: MIC, broth microdilution, MRSA KS6; assay type: cell-based, Staphylococcus aureus; details: for MIC-fold improvement vs. vancomycin: MRSA KS6, ratio of MIC of vancomycin and MIC of analogue; for MIC: Staphylococcus aureus MRSA KS6, read-out: MIC
Procedure, shortened: as §1

S. aureus VISA/HIP5827 = assay: MIC, broth microdilution, vancomycin-intermediate S. aureus VISA HIP5827; assay type: cell-based, Staphylococcus aureus; details: for MIC: Staphylococcus aureus VISA/HIP5827, read-out: MIC; for MIC-fold improvement vs. vancomycin: VISA/HIP5827, ratio of MIC of vancomycin and MIC of analogue
Procedure, shortened: as §1

[1] = test system: Murine leukemia (L1210) cells; assay: Cytostatic activity, L1210 cell proliferation; assay type: cell-based; details: mean ± SD of three experiments; highest concentration tested 250 µM; 2 days; read-out: Toxicity (IC50) L1210
Procedure, shortened: (§2)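 Test compounds, serially diluted, received an equal volume of cell suspension at 300,000–500,000 cells/mL. After 37°C incubation (2 days for L1210, 3 for CEM, 4 for HeLa), cells were enumerated by Coulter counting and 50%-inhibitory concentrations calculated per cell type.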

E. faecalis VRE 37 = assay: MIC, broth microdilution, vancomycin-resistant E. faecalis VRE 37 (VanA); assay type: cell-based, Enterococcus faecalis; details: for MIC: Enterococcus faecalis VRE 37 (vancomycin-resistant), read-out: MIC; for MIC-fold improvement vs. vancomycin: VRE 37, ratio of MIC of vancomycin and MIC of analogue
Procedure, shortened: as §1

[2] = test system: L1210, CEM and HeLa cell lines; assay: Cytostatic activity, average or summary over L1210, CEM and HeLa; assay type: cell-based; details: average of L1210, CEM and HeLa; read-out: Toxicity (IC50) Average
Procedure, shortened: as §2

E. faecalis VRE 29 = assay: MIC, broth microdilution, vancomycin-resistant E. faecalis VRE 29 (VanA); assay type: cell-based, Enterococcus faecalis; details: for MIC: Enterococcus faecalis VRE 29 (vancomycin-resistant), read-out: MIC; for MIC-fold improvement vs. vancomycin: VRE 29, ratio of MIC of vancomycin and MIC of analogue
Procedure, shortened: as §1

E. faecalis VRE 53 = assay: MIC, broth microdilution, vancomycin-resistant E. faecalis VRE 53 (VanA); assay type: cell-based, Enterococcus faecalis; details: for MIC: Enterococcus faecalis VRE 53 (vancomycin-resistant), read-out: MIC; for MIC-fold improvement vs. vancomycin: VRE 53, ratio of MIC of vancomycin and MIC of analogue
Procedure, shortened: as §1

[3] = test system: S. aureus VSSA (ATCC 6538); assay: MIC, broth microdilution, vancomycin-sensitive S. aureus (VSSA/MSSA, ATCC 6538); assay type: cell-based, Staphylococcus aureus; details: for MIC: Staphylococcus aureus VSSA, read-out: MIC; for MIC-fold improvement vs. vancomycin: VSSA, ratio of MIC of vancomycin and MIC of analogue
Procedure, shortened: as §1

[4] = test system: human cervix carcinoma (HeLa) cells; assay: Cytostatic activity, HeLa cell proliferation; assay type: cell-based; details: mean ± SD of three experiments; highest concentration tested 250 µM; 4 days; read-out: Toxicity (IC50) HeLa
Procedure, shortened: as §2

E. faecalis VSE 1 = assay: MIC, broth microdilution, vancomycin-sensitive E. faecalis (VSE 1); assay type: cell-based, Enterococcus faecalis; details: for MIC: Enterococcus faecalis VSE 1 (vancomycin-sensitive), read-out: MIC; for MIC-fold improvement vs. vancomycin: VSE 1, ratio of MIC of vancomycin and MIC of analogue
Procedure, shortened: as §1

S. aureus VRSA = assay: MIC, broth microdilution, vancomycin-resistant S. aureus (VRSA); assay type: cell-based, Staphylococcus aureus; details: for MIC: Staphylococcus aureus VRSA, read-out: MIC; for MIC-fold improvement vs. vancomycin: VRSA, ratio of MIC of vancomycin and MIC of analogue
Procedure, shortened: as §1

[5] = test system: human T-lymphocyte (CEM) cells; assay: Cytostatic activity, CEM cell proliferation; assay type: cell-based; details: mean ± SD of three experiments; highest concentration tested 250 µM; 3 days; read-out: Toxicity (IC50) CEM
Procedure, shortened: as §2

MRSA KS1 = assay: MIC, broth microdilution, MRSA KS1; assay type: cell-based, Staphylococcus aureus; details: for MIC-fold improvement vs. vancomycin: MRSA KS1, ratio of MIC of vancomycin and MIC of analogue; for MIC: Staphylococcus aureus MRSA KS1, read-out: MIC
Procedure, shortened: as §1

MRSA KS89 = assay: MIC, broth microdilution, MRSA KS89; assay type: cell-based, Staphylococcus aureus; details: for MIC-fold improvement vs. vancomycin: ratio of MIC of vancomycin and MIC of analogue; for MIC: read-out: MIC
Procedure, shortened: as §1

MRSA KS2 = assay: MIC, broth microdilution, MRSA KS2; assay type: cell-based, Staphylococcus aureus; details: for MIC-fold improvement vs. vancomycin: MRSA KS2, ratio of MIC of vancomycin and MIC of analogue; for MIC: Staphylococcus aureus MRSA KS2, read-out: MIC
Procedure, shortened: as §1

Compound | MIC (E. faecalis VRE 6) [µM] | MIC-fold improvement vs. vancomycin (E. faecalis VRE 6) | MIC-fold improvement vs. vancomycin (MRSA KS6) | MIC (MRSA KS6) [µM] | MIC (S. aureus VISA/HIP5827) [µM] | MIC-fold improvement vs. vancomycin (S. aureus VISA/HIP5827) | IC50 [1] [µM] | MIC (E. faecalis VRE 37) [µM] | MIC-fold improvement vs. vancomycin (E. faecalis VRE 37) | IC50 [2] [µM] | MIC (E. faecalis VRE 29) [µM] | MIC-fold improvement vs. vancomycin (E. faecalis VRE 29) | MIC (E. faecalis VRE 53) [µM] | MIC-fold improvement vs. vancomycin (E. faecalis VRE 53) | MIC [3] [µM] | MIC-fold improvement vs. vancomycin [3] | IC50 [4] [µM] | MIC (E. faecalis VSE 1) [µM] | MIC-fold improvement vs. vancomycin (E. faecalis VSE 1) | MIC (S. aureus VRSA) [µM] | other results
CCOc1ccc(-c2ccc(NC(=O)CNC(=O)C3NC(=O)C4NC(=O)C(NC(=O)C5NC(=O)C(CC(N)=O)NC(=O)C(NC(=O)C(CC(C)C)NC)C(O)c6ccc(c(Cl)c6)Oc6cc5cc(c6OC5OC(CO)C(O)C(O)C5OC5CC(C)(N)C(O)C(C)O5)Oc5ccc(cc5Cl)C4O)c4ccc(O)c(c4)-c4c(O)cc(O)cc43)cc2)cc1 (centres unmarked) [Vanc-86] | 1.56 (≈ 2.65 µg/mL) | 128 | 2 | 0.39 (≈ 0.664 µg/mL) | 0.78 (≈ 1.33 µg/mL) | 8 | 3 ± 2.3 | 6.25 (≈ 10.6 µg/mL) | 64 | 5 | 3.13 (≈ 5.33 µg/mL) | 128 | 12.5 (≈ 21.3 µg/mL) | 32 | 0.39 (≈ 0.664 µg/mL) | 2 | 9.8 ± 5.8 | ≤0.05 | ≥32 | 1.56 (≈ 2.65 µg/mL) | MIC-fold improvement vs. vancomycin (S. aureus VRSA): 64; IC50 [5]: 1 ± 0.2 µM; MIC-fold improvement vs. vancomycin (MRSA KS1): 4; MIC (MRSA KS1): 0.20 µM (≈ 0.34 µg/mL); MIC-fold improvement vs. vancomycin (MRSA KS89; MRSA KS8): 2; MIC (MRSA KS89; Staphylococcus aureus MRSA KS8): 0.39 µM (≈ 0.664 µg/mL); MIC-fold improvement vs. vancomycin (MRSA KS2): 4; MIC (MRSA KS2): 0.20 µM (≈ 0.34 µg/mL)
CNC(CC(C)C)C(=O)NC1C(=O)NC(CC(N)=O)C(=O)NC2C(=O)NC3C(=O)NC(C(=O)NC(C(=O)NCC(=O)Nc4ccc(C(=O)c5ccccc5)cc4)c4cc(O)cc(O)c4-c4cc3ccc4O)C(O)c3ccc(c(Cl)c3)Oc3cc2cc(c3OC2OC(CO)C(O)C(O)C2OC2CC(C)(N)C(O)C(C)O2)Oc2ccc(cc2Cl)C1O (centres unmarked) [Vanc-88] | 1.56 (≈ 2.63 µg/mL) | 128 | 2 | 0.39 (≈ 0.657 µg/mL) | 0.39 (≈ 0.657 µg/mL) | 16 | 127 ± 32 | 3.13 (≈ 5.28 µg/mL) | 128 | 86 | 1.56 (≈ 2.63 µg/mL) | 256 | 12.5 (≈ 21.1 µg/mL) | 32 | 0.39 (≈ 0.657 µg/mL) | 2 | 98 ± 23 | ≤0.05 | ≥32 | 0.78 (≈ 1.31 µg/mL) | MIC-fold improvement vs. vancomycin (S. aureus VRSA): 128; IC50 [5]: 32 ± 1 µM; MIC-fold improvement vs. vancomycin (MRSA KS1): 8; MIC (MRSA KS1): 0.10 µM (≈ 0.169 µg/mL); MIC-fold improvement vs. vancomycin (MRSA KS89; MRSA KS8): 4; MIC (MRSA KS89; Staphylococcus aureus MRSA KS8): 0.20 µM (≈ 0.337 µg/mL); MIC-fold improvement vs. vancomycin (MRSA KS2): 8; MIC (MRSA KS2): 0.10 µM (≈ 0.169 µg/mL)
CNC(CC(C)C)C(=O)NC1C(=O)NC(CC(N)=O)C(=O)NC2C(=O)NC3C(=O)NC(C(=O)NC(C(=O)NCC(=O)Nc4ccc5c(c4)C(=O)c4ccccc4-5)c4cc(O)cc(O)c4-c4cc3ccc4O)C(O)c3ccc(c(Cl)c3)Oc3cc2cc(c3OC2OC(CO)C(O)C(O)C2OC2CC(C)(N)C(O)C(C)O2)Oc2ccc(cc2Cl)C1O (centres unmarked) [Vanc-89] | 3.13 (≈ 5.27 µg/mL) | 64 | 4 | 0.20 (≈ 0.337 µg/mL) | 0.78 (≈ 1.31 µg/mL) | 8 | 71 ± 56 | 6.25 (≈ 10.5 µg/mL) | 64 | 88 | 6.25 (≈ 10.5 µg/mL) | 64 | 12.5 (≈ 21 µg/mL) | 32 | 0.10 (≈ 0.168 µg/mL) | 8 | 154 ± 30 | ≤0.05 | ≥32 | 0.78 (≈ 1.31 µg/mL) | MIC-fold improvement vs. vancomycin (S. aureus VRSA): 128; IC50 [5]: 38 ± 10 µM; MIC-fold improvement vs. vancomycin (MRSA KS1): 8; MIC (MRSA KS1): 0.10 µM (≈ 0.168 µg/mL); MIC-fold improvement vs. vancomycin (MRSA KS89; MRSA KS8): 4; MIC (MRSA KS89; Staphylococcus aureus MRSA KS8): 0.20 µM (≈ 0.337 µg/mL); MIC-fold improvement vs. vancomycin (MRSA KS2): 8; MIC (MRSA KS2): 0.10 µM (≈ 0.168 µg/mL)
CNC(CC(C)C)C(=O)NC1C(=O)NC(CC(N)=O)C(=O)NC2C(=O)NC3C(=O)NC(C(=O)NC(C(=O)NCC(=O)NC4c5ccccc5-c5ccccc54)c4cc(O)cc(O)c4-c4cc3ccc4O)C(O)c3ccc(c(Cl)c3)Oc3cc2cc(c3OC2OC(CO)C(O)C(O)C2OC2CC(C)(N)C(O)C(C)O2)Oc2ccc(cc2Cl)C1O (centres unmarked) [Vanc-90] | 1.56 (≈ 2.6 µg/mL) | 128 | 4 | 0.20 (≈ 0.334 µg/mL) | 0.39 (≈ 0.651 µg/mL) | 16 | 175 ± 106 | 3.13 (≈ 5.23 µg/mL) | 128 | 123 | 3.13 (≈ 5.23 µg/mL) | 128 | 12.5 (≈ 20.9 µg/mL) | 32 | 0.10 (≈ 0.167 µg/mL) | 8 | 127 ± 27 | ≤0.05 | ≥32 | 0.78 (≈ 1.3 µg/mL) | MIC-fold improvement vs. vancomycin (S. aureus VRSA): 128; IC50 [5]: 68 ± 8 µM; MIC-fold improvement vs. vancomycin (MRSA KS1): 8; MIC (MRSA KS1): 0.10 µM (≈ 0.167 µg/mL); MIC-fold improvement vs. vancomycin (MRSA KS89; MRSA KS8): 4; MIC (MRSA KS89; Staphylococcus aureus MRSA KS8): 0.20 µM (≈ 0.334 µg/mL); MIC-fold improvement vs. vancomycin (MRSA KS2): 8; MIC (MRSA KS2): 0.10 µM (≈ 0.167 µg/mL)
CCCCCn1cc(-c2ccc(NC(=O)CNC(=O)C3NC(=O)C4NC(=O)C(NC(=O)C5NC(=O)C(CC(N)=O)NC(=O)C(NC(=O)C(CC(C)C)NC)C(O)c6ccc(c(Cl)c6)Oc6cc5cc(c6OC5OC(CO)C(O)C(O)C5OC5CC(C)(N)C(O)C(C)O5)Oc5ccc(cc5Cl)C4O)c4ccc(O)c(c4)-c4c(O)cc(O)cc43)cc2)nn1 (centres unmarked) [Vanc-91] | 1.56 (≈ 2.68 µg/mL) | 128 | 8 | 0.10 (≈ 0.172 µg/mL) | 0.39 (≈ 0.67 µg/mL) | 16 | 154 ± 93 | 6.25 (≈ 10.7 µg/mL) | 64 | 136 | 6.25 (≈ 10.7 µg/mL) | 64 | 25 (≈ 43 µg/mL) | 16 | 0.10 (≈ 0.172 µg/mL) | 8 | 147 ± 11 | ≤0.05 | ≥32 | 0.39 (≈ 0.67 µg/mL) | MIC-fold improvement vs. vancomycin (S. aureus VRSA): 256; IC50 [5]: 107 ± 25 µM; MIC-fold improvement vs. vancomycin (MRSA KS1): 8; MIC (MRSA KS1): 0.10 µM (≈ 0.172 µg/mL); MIC-fold improvement vs. vancomycin (MRSA KS89; MRSA KS8 (head; KS89 in title)): 4; MIC (MRSA KS89; Staphylococcus aureus MRSA KS8 (head; KS89 in title)): 0.20 µM (≈ 0.344 µg/mL); MIC-fold improvement vs. vancomycin (MRSA KS2): 8; MIC (MRSA KS2): 0.10 µM (≈ 0.172 µg/mL)
